Assay results reported in US20100179225A1, “POI Prevention” (CYTOKINE PHARMASCIENCES, INC., priority 2008, published 2010).

How the values were obtained:
ICAM-1 mRNA = test: Proinflammatory gene expression in ME, real-time RT-PCR: ICAM-1; type: in vivo, mice; conditions: 5 mg/kg i.v. preoperative
Description: The small bowel of the animals was subjected to a standardized, surgical manipulation (IM) as described previously (Kalff J C, Schraut W H, Simmons R L et al. Surgical manipulation of the gut elicits an intestinal muscularis inflammatory response resulting in postsurgical ileus. Ann Surg 1998; 228:652-663; Wehner S, Schwarz N T, Hundsdoerfer R et al. Induction of IL-6 within the rodent intestinal muscularis after intestinal surgical stress. Surgery 2005; 137:436-446). In brief, after anesthesia a midline abdominal incision was made into the peritoneal cavity. […]
Proinflammatory gene expression was analyzed in placebo and CNI-1493 (5 mg/kg) treated animals at 1, 3, 6 and 24 hours after operation; n=5-7 each group. […] Total RNA was analyzed in ME specimen that was prepared as described before (Wehner S, Behrendt F F, Lyutenski B N et al. Inhibition of macrophage function prevents intestinal inflammation and postoperative ileus in rodents. Gut 2007; 56:176-185). […] Expression of mRNA was quantified in triplicate by a RT-PCR with gene expression assays for […] (MCP-1; #Mm00441242_m1), CCL3 (MIP-1α #Mm00441258_m1), IL-6 (Assay ID #Mm00446190_ml), TNF-α (#Mm00443258_m1) and ICAM-1 (#Mm00516023_m1). […] Data quantification was performed by the ΔΔCT method. […]

[1] = system: nitric oxide (NO) production in ME; test: Nitric oxide release from rat ME cultures (Griess reaction) after IM; type: in vivo; conditions: rats
Procedure: Animals underwent IM after intravenous CNI-1493 (5 mg/kg) or oral CPSI-2364 (1 mg/kg or 0.1 mg/kg) administration 90 minutes before surgery. Control animals received CNI-1493 (5 mg/kg) intravenously or CPSI-2364 orally (1 mg/kg or 0.1 mg/kg), but were not operated.
Total ME from small intestine was isolated 24 h after operation as described above and then cut into small pieces and washed for 30 minutes in PBS containing a penicillin/streptomycin (200U/200 μg) mixture. Aliquots of ˜50 mg were incubated in 1 mL of DMEM at 37° C. and 5% CO2 for further 24 hours and tissue culture supernatants were frozen in liquid nitrogen. The muscle tissue was blotted dry, and the exact weight was measured. To quantify the generation of NO from intestinal smooth muscle preparations, nitrite production was measured by the Griess reaction as described previously (Kalff J C, Schraut W H, Billiar T R et al. Role of inducible nitric oxide synthase in postoperative intestinal smooth muscle dysfunction in rodents. Gastroenterology 2000; 118:316-327). In brief, supernatant from the tissue culture was mixed with an equal volume of Griess reagent (0.1% N-(1-napthyl)ethyl-enediamine dihydrochloride and 1% sulfanilamide in 6% phosphoric acid; 1:1) and incubated for 10 minutes. The absorbance at 550 nm was measured with a microplate reader and compared with standard dilutions of sodium nitrite. […]

swine = test: Intestinal anastomotic healing in swine (bursting pressure, hydroxyproline content); type: in vivo; conditions: 1 mg/kg p.o. 14 hours and 3 hours, or once 2 hours (iv group), before operation, postoperative day 6
Procedure: Swine were fed with 1 mg/kg CPSI-2364 or placebo (2.5% mannitol) 14 hours and 3 hours before operation. In the iv group, 1 mg/kg CPSI 2364 was fed once 2 hours before operation. After premedication animals were intubated and a central venous catheter was applied. A laparotomy was performed under sterile conditions.

SMILES	ICAM-1 mRNA expression (fold upregulation) (ICAM-1 mRNA; 1 hour after IM) [fold]	ICAM-1 mRNA expression (fold upregulation) (ICAM-1 mRNA; 3 hours after IM) [fold]	NO production from ME vs placebo IM ([1]; 0.1 mg/kg bodyweight p.o.)	NO production from ME vs placebo IM ([1]; p.o. preoperative (FIG. 12))	anastomotic bursting pressure levels vs placebo (swine)	anastomotic hydroxyproline content vs placebo (swine)
C/C(=N\N=C(N)N)c1cc(NC(=O)CCCCCCCCC(=O)Nc2cc(/C(C)=N/N=C(N)N)cc(/C(C)=N/N=C(N)N)c2)cc(/C(C)=N/N=C(N)N)c1.Cl.Cl.Cl.Cl [CNI-1493]	3.3±0.70	7.2±2.8	–	–	–	–
C/C(=N\N=C(N)N)c1cc(NC(=O)CCCCCCCCC(=O)Nc2cc(/C(C)=N/N=C(N)N)cc(/C(C)=N/N=C(N)N)c2)cc(/C(C)=N/N=C(N)N)c1.CS(=O)(=O)O.CS(=O)(=O)O.CS(=O)(=O)O.CS(=O)(=O)O [CPSI-2364]	–	–	led to the described results	significantly diminished	No differences were observed	No differences were observed
